In brackets after ≈: the same amount, converted by molar mass. Several values for one entry are separate records, joined by “and”; a condition that tells them apart may be missing. Equal entries are not always repeated.
Tests used:
Format in all cases: functional
[1] = tested on: Chlamydia pneumoniae; experiment: Antimicrobial activity against Chlamydia pneumoniae AR39 infected in C57BL/6J mouse at 3 mg/kg, ip assessed as bacterial load measured on day 10 post infection relative to control; settings: route intraperitoneal
[2] = tested on: Chlamydia pneumoniae; experiment: Antimicrobial activity against Chlamydia pneumoniae AR39 infected in C57BL/6J mouse at 1 mg/kg, ip assessed as bacterial load measured on day 10 post infection relative to control; settings: route intraperitoneal
[3] = tested on: Chlamydia pneumoniae; experiment: Antimicrobial activity against Chlamydia pneumoniae TW-183 after 72 hrs by twofold dilution method; settings: TW-183, 72 h

| Compound | MIC [3] [ng/mL] | Efficacy [1] [%] | Efficacy [2] [%] | Efficacy ([1]; 3 mg/kg) | Efficacy ([2]; 1 mg/kg) |
| --- | --- | --- | --- | --- | --- |
| CO[C@H]1/C=C/O[C@@]2(C)Oc3c(C)c(O)c4c(=O)c(c5oc6cc(N7CC8CCC(C7)N8C)cc(O)c6nc-5c4c3C2=O)NC(=O)/C(C)=C\C=C\[C@H](C)[C@H](O)[C@@H](C)[C@@H](O)[C@@H](C)[C@H](OC(C)=O)[C@@H]1C | 0.125 (≈ 0.135 nM) | <0.025 | 0.14 |  |  |
| CO[C@H]1/C=C/O[C@@]2(C)Oc3c(C)c(O)c4c(=O)c(c5oc6cc(N7CCN(CC8CC8)CC7)cc(O)c6nc-5c4c3C2=O)NC(=O)/C(C)=C\C=C\[C@H](C)[C@H](O)[C@@H](C)[C@@H](O)[C@@H](C)[C@H](O)[C@@H]1C | 0.064 (≈ 0.0713 nM) | 15.51 | 1.34 |  |  |
| CO[C@H]1/C=C/O[C@@]2(C)Oc3c(C)c(O)c4c(=O)c(c5oc6cc(N7CCC(C)(N(C)C)CC7)cc(O)c6nc-5c4c3C2=O)NC(=O)/C(C)=C\C=C\[C@H](C)[C@H](O)[C@@H](C)[C@@H](O)[C@@H](C)[C@H](OC(C)=O)[C@@H]1C |  | 0.56 | 0.49 |  |  |
| CO[C@H]1/C=C/O[C@@]2(C)Oc3c(C)c(O)c4c(=O)c(c5oc6cc(N7CCC(C)(C)N(C)C(C)(C)C7)cc(O)c6nc-5c4c3C2=O)NC(=O)/C(C)=C\C=C\[C@H](C)[C@H](O)[C@@H](C)[C@@H](O)[C@@H](C)[C@H](OC(C)=O)[C@@H]1C | 0.064 (≈ 0.066 nM) | <0.025 | 0.03 |  |  |
| CO[C@H]1/C=C/O[C@@]2(C)Oc3c(C)c(O)c4c(=O)c(c5oc6cc(N7CCN(C)CC7)cc(O)c6nc-5c4c3C2=O)NC(=O)/C(C)=C\C=C\[C@H](C)[C@H](O)[C@@H](C)[C@@H](O)[C@@H](C)[C@H](O)[C@@H]1C | 0.125 (≈ 0.146 nM) |  |  | 0.44% and 0.18% | 1.26% and 6.04% |

The next lines start with results.

| MIC [3] [ng/mL] | Compound | Efficacy [1] [%] | Efficacy [2] [%] | Efficacy ([1]; 3 mg/kg) | Efficacy ([2]; 1 mg/kg) |
| --- | --- | --- | --- | --- | --- |
| 0.064 (≈ 0.0712 nM) | CO[C@H]1/C=C/O[C@@]2(C)Oc3c(C)c(O)c4c(=O)c(c5oc6cc(N7CC(N(C)C)C7)cc(O)c6nc-5c4c3C2=O)NC(=O)/C(C)=C\C=C\[C@H](C)[C@H](O)[C@@H](C)[C@@H](O)[C@@H](C)[C@H](OC(C)=O)[C@@H]1C | 0.025 | 0.06 |  |  |
| 0.25 (≈ 0.266 nM) | CO[C@H]1/C=C/O[C@@]2(C)Oc3c(C)c(O)c4c(=O)c(c5oc6cc(N7CCN(CC(C)C)CC7)cc(O)c6nc-5c4c3C2=O)NC(=O)/C(C)=C\C=C\[C@H](C)[C@H](O)[C@@H](C)[C@@H](O)[C@@H](C)[C@H](OC(C)=O)[C@@H]1C [RIFALAZIL] | 1.14 | 0.24 |  |  |
